Holding throughout (assay): DTP human tumour cell line panel, 48 h
Experiment [1] has as its system A498 renal.
In experiment [2] the test system is A549 NSCLC.
For experiment [3], the system named is ACHN renal.
In experiment [4] the test system is EKVX NSCLC.
For experiment [5], the system named is HCT-15 colon.
The subject of experiment [6] is HL-60(TB) leukemia.
Experiment [7] concerns HOP-92 NSCLC.
The subject of experiment [8] is HT29 colon.
Experiment [9] concerns MALME-3M melanoma.
The test system of experiment [10] is NCI-H226 lung.
Experiment [11] has as its system NCI-H522 lung.
Experiment [12] has as its system NCI/ADR-RES ovarian.
Experiment [13] relates to RPMI-8226 leukemia.
Experiment [14] has as its system SF-268 CNS.
The subject of experiment [15] is SK-MEL-5 melanoma.
Experiment [16] deals with SK-OV-3 ovarian.
Experiment [17] relates to U251 CNS.
The test system of experiment [18] is UO-31 renal.
The subject of experiment [19] is SK-MEL-28 melanoma.
The test system of experiment [20] is OVCAR-4 ovarian.

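Five concentrations, 48 hours, 96-well plates. Definition used: TGI = concentration required for complete inhibition of growth.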

A word on the TGI: it is the concentration at which net growth stops. For the compound `Cc1ccc(S(N)(=O)=O)cc1`, the TGI in [1], in experiment [2], in experiment [3], in [4], in experiment [5] and in experiment [6] was more than 1000 µM throughout. The TGI in experiment [7], in experiment [8], in experiment [9], in experiment [10], in [11] and in experiment [12] was more than 1000 µM each time. Besides, the TGI in experiment [13], in [14], in [15], in experiment [16], in experiment [17] and in experiment [18] was more than 1000 µM in each case.

For `CC[n+]1c(/C=C/c2ccc(N(CCCl)CCCl)cc2)ccc2cc(NC(=O)/C=C/c3ccccc3)ccc21`, the TGI was 27.4 µM in experiment [1]; 6.09 µM in experiment [2]; more than 56.6 µM in experiment [3]; 4.76 µM in experiment [4]; more than 94.7 µM in [5]; 0.389 µM in experiment [6]. Moreover, the TGI was 1.07 µM in experiment [7]; 1.36 µM in experiment [8]; 0.81 µM in experiment [9]; 2.89 µM in [10]; 1.17 µM in experiment [11]; more than 100 µM in experiment [12]. Also, the TGI in experiment [13] turned out to be 0.696 µM; in experiment [14], 1.96 µM; in [19], 2.03 µM; in experiment [15], 0.632 µM; in experiment [16] it was 2.81 µM; in experiment [17], 0.619 µM. In experiment [18], this compound yielded a TGI of 52.2 µM.

For `Cc1nc2ccccc2c(=O)[nH]1`, the TGI in experiment [1], in [2], in experiment [3], in [4], in [5] and in experiment [6] was more than 100 µM each time. Moreover, the TGI in experiment [7], in experiment [8], in [9], in experiment [10], in experiment [11] and in experiment [20] was more than 100 µM in each case. Further, the TGI in experiment [13], in [14], in experiment [19], in experiment [15], in experiment [16] and in experiment [17] was more than 100 µM each time. Moreover, in experiment [18], the TGI is more than 100 µM.

`O=[N+]([O-])c1cn[n+]([O-])c2ccccc12`: the TGI in experiment [1] stood at 40.1 µM; in [2], 30.1 µM; in experiment [3], 3.83 µM; in [4], 26.1 µM; in experiment [5], 8.52 µM; in experiment [6] it was 3.59 µM. The TGI in experiment [7] was 28.4 µM; in [8], 35.2 µM; in experiment [9] it was 29.4 µM; in experiment [10], 27.3 µM; in [12] it was 19.2 µM; in experiment [13], 7.37 µM. Further, the TGI in [14] worked out at 17.9 µM; in experiment [19] it was 26.1 µM; in [15], 26.7 µM; in [16] it was 26.3 µM; in experiment [17], 15 µM.

With `COc1cc[n+](C)cc1`, the TGI in experiment [2], in experiment [4], in experiment [5], in experiment [6], in [7] and in [8] was more than 100 µM each time. Also, the TGI in experiment [9], in [10], in [11], in experiment [12], in experiment [20] and in [13] was more than 100 µM in each case. The TGI in experiment [14], in experiment [19], in [15], in [16], in [17] and in experiment [18] was more than 100 µM each time.

On to `Cc1cn(Cc2ccccc2CCl)c(=O)[nH]c1=O`, for which the TGI is 36.6 µM in [2]; 27.1 µM in experiment [3]; 33.2 µM in [4]; 31.7 µM in experiment [5]; 14.8 µM in experiment [6]; more than 100 µM in experiment [7]. Also, the TGI was 79.7 µM in [8]; 57 µM in experiment [9]; 23.9 µM in experiment [11]; 36.2 µM in experiment [12]; more than 100 µM in experiment [20]; 38.1 µM in experiment [14]. The TGI in experiment [19] was 45.5 µM; in [15], 20.7 µM; in experiment [16], more than 100 µM; in [17], 21.4 µM; in experiment [18], 24.8 µM.

Turning to `Brc1ccccc1-c1ncc(-c2ccccc2)o1`, the total growth inhibition concentration (TGI) in experiment [1] is 60.5 µM; in [2], more than 100 µM; in experiment [3], more than 100 µM; in experiment [4] it was more than 100 µM; in experiment [5], 44.9 µM; in experiment [6], more than 100 µM. Moreover, the TGI was 46.3 µM in experiment [7]; more than 100 µM in experiment [8]; 76.3 µM in [9]; 49.9 µM in [11]; more than 100 µM in experiment [12]; more than 100 µM in experiment [20]. The TGI in experiment [13] was 48.8 µM; in [14], more than 100 µM; in experiment [19], more than 100 µM; in experiment [15] it was 34.5 µM; in experiment [16], more than 100 µM; in experiment [17], 44.2 µM. For the same compound, the TGI in experiment [18] was more than 100 µM.

As to `N#Cc1c(NC(=S)NC(=O)c2ccccc2)nc2c(c1-c1ccccc1)CCCC2`, the TGI in [2], in experiment [5], in experiment [6], in experiment [8], in experiment [12] and in [20] was more than 100 µM each time. The TGI in experiment [13] is more than 100 µM; in experiment [14], 27.2 µM; in [19], more than 100 µM; in experiment [15] it was more than 100 µM; in experiment [16], 86.3 µM; in [17], more than 100 µM. The compound also yielded a TGI in experiment [18] of more than 100 µM.

(Values after PubChem BioAssay (NCI).)
